Experimental data taken from patent publication US20250177405A1, “METHODS OF TREATING NEUROLOGICAL AND CARDIOVASCULAR CONDITIONS” (ASTROCYTE PHARMACEUTICALS, INC., priority 2021, published 2025).

Tested on: cynomolgus monkey model of transient middle cerebral artery occlusion (tMCAO)
Experiment: transient middle cerebral artery occlusion (tMCAO) stroke model, MRI lesion and penumbra volume
Assay type: in vivo, Macaca fascicularis
Conditions: for overall DWI lesion volume smaller compared to vehicle: I-1 composite
Excerpt: A total of 25 adult male Macaca fascicularis macaques were used in this study, with ages ranging from 47-83 months and weights ranging from 2.7-5.4 kg.
Under deep anesthesia, the right eyeball was removed, and the orbital content was dissected and excised using a surgical microscope (KOM300, Konan Medical Inc., Hogo, Japan). A window of approximately 10 mm in diameter was opened just anterior to the foramen of the optic canal at the base of the skull, allowing identification of the right middle cerebral artery (MCA) main trunk beneath the dura. After opening the dura mater, tMCAO was performed using 2 microvascular clips (Sugita TII, 17-001-81, Mizuho Medical, Tokyo, Japan), one on the proximal part of the main MCA trunk and the other on the distal-to-orbitofrontal brunch. Four hours after tMCAO, these clips were removed. After visual confirmation of recanalization of MCA blood flow, the burr hole was closed using Clearfil New Bond (Kuraray Noritake Dental, Inc., Tokyo, Japan) and the orbital cavity was closed according to best veterinary practice.
Transorbital transient MCA occlusion (tMCAO) was performed using 2 microvascular clips, one placed on the proximal part of the main MCA trunk and the other on the distal-to-orbitofrontal branch (references 10, 11, 24). Four hours after MCA occlusion, these clips were removed for recanalization. After visual confirmation of restituted MCA blood flow, the burr hole was closed using Clearfil New Bond (Kuraray Noritake Dental, Inc., Tokyo, Japan) and the orbital cavity was closed according to best veterinary practice.
Serial coronal magnetic resonance imaging (MRI) of the brain (3 mm slice thickness) was performed 0.5, 1.5, 1.8, 3.5, 6.0, 24 and 120 h post-occlusion. Imaging sequences were (i) diffusion-weighted imaging (DWI), arterial spin labeling (ASL), (ii) magnetic resonance angiography (MRA), and (iii) fluid-attenuated inversion-recovery (FLAIR) T2-weighted imaging. Apparent diffusion coefficient (ADC) maps, cerebral blood flow (CBF), and perfusion deficit were generated with FuncTool Performance (GE Healthcare, Milwaukee, WI, USA) available on the MRI scanner console. Inhibition of lesion volume was considered the primary efficacy endpoint. Penumbral volume (mm^3) was calculated by subtracting the lesion volume delineated from the DWI diffusion maps from the total calculated perfusion deficit.
The infarct (lesion) areas (mm^2) of each coronal image were marked using OsiriX version 8.0.2 (Pixmeo SARL, Bernex, Switzerland). The infarct was manually delineated using DWI maps. The lesion volume (mm^3) was calculated as the sum of the product of each section's infarct area and slice thickness (3 mm). […] The perfusion deficit (mm^3) was calculated from ASL maps as a reduction to <30% and <50% of the corresponding region of the contralateral side. […] Penumbral volume (mm^3) was calculated by subtracting the lesion volume delineated from the DWI diffusion maps from the total calculated perfusion deficit.
Macaques received a bolus dose of vehicle (40% PEG400 in 0.9% saline) or I-1 into a saphenous vein 2 h after occlusion (2 h prior to restoration of MCA blood flow), followed immediately by a 22 h intravenous infusion. This dosing regimen was designed to rapidly achieve and maintain pre-determined plasma and cerebrospinal fluid (CSF) steady-state concentrations of I-1 based on its pharmacokinetics previously determined in näive and MCA occluded macaques (Tables A-C below).

Structure (SMILES): CSc1nc(N)c2ncn([C@H]3C(O)C(O)[C@]4(CO)C[C@H]34)c2n1 (stereo in doubt) [Compound I-1]
- lesion growth rate (slope of lesion growth) after treatment initiation (1.8-6.0 h post-occlusion, versus vehicle and pre-treatment, composite p=0.004): rapid decrease in lesion growth rate
- decrease in penumbra volume during the ischemic period (I-1-treated composite (n=16), 0.5 h to 3.5 h post-occlusion, vehicle 71%, p=0.01): 48%
- rate of penumbra volume decrease (I-1-treated composite, vehicle 604.5 mm^3/h): 296.0 mm^3/h
- overall DWI lesion volume smaller compared to vehicle (24 h post-occlusion, p=0.07): 20%
- overall DWI lesion volume smaller compared to vehicle (120 h post-occlusion, p=0.05): 30%
